According to ChEMBL document CHEMBL1201862, “PubChem BioAssay data set” (2004):
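96-well plates; 48 h exposure; 5 concentrations. Endpoints by linear interpolation between flanking doses. Not reached: highest tested concentration assigned. GI50 is the concentration that inhibits growth by half.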 The source made the active and inactive calls. No stated cut-off is given here; in the data, active = GI50 up to about 1.1 µM and inactive = higher.

Tests used:
Experiment in all cases: NCI tumour cell line growth inhibition, 48 h
CCRF-CEM = system: CCRF-CEM
Malme-3M = system: Malme-3M
U-251 = system: U-251
HCC 2998 = system: HCC 2998
UACC-62 = system: UACC-62
UACC-257 = system: UACC-257
HL-60 = system: HL-60
MDA-N = system: MDA-N
T47D = system: T47D
RPMI-8226 = system: RPMI-8226
MCF7 = system: MCF7
UO-31 = system: UO-31
Hs-578T = system: Hs-578T
IGROV-1 = system: IGROV-1
SNB-19 = system: SNB-19
NCI-H522 = system: NCI-H522
MDA-MB-231 = system: MDA-MB-231
NCI/ADR-RES = system: NCI/ADR-RES
HT-29 = system: HT-29
MDA-MB-435 = system: MDA-MB-435

SMILES	GI50 (CCRF-CEM)	GI50 (Malme-3M)	GI50 (U-251)	GI50 (HCC 2998)	GI50 (UACC-62)	GI50 (UACC-257)	GI50 (HL-60)	GI50 (MDA-N)	GI50 (T47D)	GI50 (RPMI-8226)	GI50 (MCF7)	GI50 (UO-31)	GI50 (Hs-578T)	GI50 (IGROV-1)	GI50 (SNB-19)	GI50 (NCI-H522)	GI50 (MDA-MB-231)	GI50 (NCI/ADR-RES)	GI50 (HT-29)	GI50 (MDA-MB-435)
N=C(N)NC(=N)Nc1ccc(S(=O)(=O)O)cc1	> 100 µM (inactive)	> 100 µM (inactive)	> 100 µM (inactive)	> 100 µM (inactive)	> 100 µM (inactive)	> 100 µM (inactive)	> 100 µM (inactive)	> 100 µM (inactive)	> 100 µM (inactive)	> 100 µM (inactive)	> 100 µM (inactive)	> 100 µM (inactive)	> 100 µM (inactive)	> 100 µM (inactive)	> 100 µM (inactive)	> 100 µM (inactive)	> 100 µM (inactive)	> 100 µM (inactive)	> 100 µM (inactive)	> 100 µM (inactive)
CCOC(=O)c1sc2[n+](c1C)C(=O)/C(=C/c1ccccc1Cl)S2	15.3 µM (inactive)	11 µM (inactive)	0.583 µM (active)	1.7 µM (inactive)	0.447 µM (active)	4.83 µM (inactive)	4.12 µM (inactive)	0.259 µM (active)	15.3 µM (inactive)	0.54 µM (active)	3.11 µM (inactive)	0.684 µM (active)	0.822 µM (active)	1.84 µM (inactive)	0.579 µM (active)	0.532 µM (active)	3.06 µM (inactive)	0.342 µM (active)	3.44 µM (inactive)	0.281 µM (active)
O=C1CCCCCC1CC(Sc1ccccc1)Sc1ccccc1 (centres undefined)	25.2 µM (inactive)	> 100 µM (inactive)	> 100 µM (inactive)	> 100 µM (inactive)	81.8 µM (inactive)	59.8 µM (inactive)	21 µM (inactive)	> 100 µM (inactive)	14.4 µM (inactive)	37.6 µM (inactive)	72.3 µM (inactive)	88.5 µM (inactive)	96.2 µM (inactive)	> 100 µM (inactive)	> 100 µM (inactive)	65.3 µM (inactive)	> 100 µM (inactive)	> 100 µM (inactive)	> 100 µM (inactive)	> 100 µM (inactive)
CCOP(=O)(CC1CC(O)(CNc2cc(Cl)nc(N)n2)C1)OCC (centres undefined)	> 100 µM (inactive)	> 100 µM (inactive)	> 100 µM (inactive)	> 100 µM (inactive)	> 100 µM (inactive)	> 100 µM (inactive)	> 100 µM (inactive)	> 100 µM (inactive)	98.9 µM (inactive)	> 100 µM (inactive)	> 100 µM (inactive)	> 100 µM (inactive)	> 100 µM (inactive)	> 100 µM (inactive)	–	> 100 µM (inactive)	> 100 µM (inactive)	> 100 µM (inactive)	> 100 µM (inactive)	> 100 µM (inactive)
CN1C(c2ccccc2)=CC(=O)C(O)=C(c2ccccc2)S1(=O)=O	> 100 µM (inactive)	> 100 µM (inactive)	> 100 µM (inactive)	> 100 µM (inactive)	> 100 µM (inactive)	> 100 µM (inactive)	> 100 µM (inactive)	> 100 µM (inactive)	> 100 µM (inactive)	> 100 µM (inactive)	> 100 µM (inactive)	> 100 µM (inactive)	> 100 µM (inactive)	> 100 µM (inactive)	> 100 µM (inactive)	> 100 µM (inactive)	> 100 µM (inactive)	> 100 µM (inactive)	> 100 µM (inactive)	> 100 µM (inactive)
CC(C)(Cl)C(Cl)CC/C(CBr)=C(\Cl)CCl (centres undefined)	0.294 µM (active)	6.85 µM (inactive)	4.24 µM (inactive)	14.4 µM (inactive)	1.67 µM (inactive)	3.25 µM (inactive)	0.582 µM (active)	2.21 µM (inactive)	1.82 µM (inactive)	1.89 µM (inactive)	11 µM (inactive)	6.53 µM (inactive)	5.32 µM (inactive)	2.04 µM (inactive)	17.6 µM (inactive)	0.658 µM (active)	2.57 µM (inactive)	5.81 µM (inactive)	2.82 µM (inactive)	3.36 µM (inactive)
CCOC(=O)CCCNC(=O)CCCCC(=O)N(C)C	> 100 µM (inactive)	> 100 µM (inactive)	> 100 µM (inactive)	> 100 µM (inactive)	> 100 µM (inactive)	> 100 µM (inactive)	> 100 µM (inactive)	> 100 µM (inactive)	> 100 µM (inactive)	> 100 µM (inactive)	> 100 µM (inactive)	> 100 µM (inactive)	> 100 µM (inactive)	> 100 µM (inactive)	> 100 µM (inactive)	> 100 µM (inactive)	> 100 µM (inactive)	> 100 µM (inactive)	> 100 µM (inactive)	> 100 µM (inactive)
CC[n+]1c(/C=C/c2ccc(N(CCCl)CCCl)cc2)ccc2cc(NC(=O)/C=C/c3ccccc3)ccc21	0.118 µM (active)	0.291 µM (active)	0.132 µM (active)	0.39 µM (active)	0.646 µM (active)	0.787 µM (active)	0.115 µM (active)	0.6 µM (active)	0.249 µM (active)	0.218 µM (active)	0.139 µM (active)	16.6 µM (inactive)	0.0912 µM (active)	0.31 µM (active)	0.393 µM (active)	0.218 µM (active)	0.32 µM (active)	30.9 µM (inactive)	0.344 µM (active)	0.288 µM (active)
Cc1ccc(S(=O)(=O)NC(=O)NNc2ccc(F)cc2)cc1	> 100 µM (inactive)	> 100 µM (inactive)	> 100 µM (inactive)	> 100 µM (inactive)	> 100 µM (inactive)	> 100 µM (inactive)	> 100 µM (inactive)	> 100 µM (inactive)	> 100 µM (inactive)	> 27 µM (inactive)	> 100 µM (inactive)	> 31.6 µM (inactive)	> 100 µM (inactive)	> 100 µM (inactive)	> 100 µM (inactive)	> 100 µM (inactive)	> 100 µM (inactive)	> 44 µM (inactive)	> 100 µM (inactive)	> 100 µM (inactive)
O=C(CC(O)(C(F)(F)Cl)C(F)(F)Cl)CC(O)(C(F)(F)Cl)C(F)(F)Cl	2.29 µM (inactive)	0.483 µM (active)	1.65 µM (inactive)	1.74 µM (inactive)	0.738 µM (active)	1.41 µM (inactive)	1.78 µM (inactive)	3.49 µM (inactive)	0.647 µM (active)	0.516 µM (active)	2.14 µM (inactive)	0.929 µM (active)	1.92 µM (inactive)	2.17 µM (inactive)	1.71 µM (inactive)	1.2 µM (inactive)	2.05 µM (inactive)	2.06 µM (inactive)	1.65 µM (inactive)	1.69 µM (inactive)
Nc1nnnn1NC(=O)NCCCl	> 10 µM (inactive)	> 10 µM (inactive)	> 10 µM (inactive)	> 10 µM (inactive)	> 10 µM (inactive)	> 10 µM (inactive)	> 10 µM (inactive)	> 10 µM (inactive)	> 10 µM (inactive)	> 10 µM (inactive)	> 10 µM (inactive)	> 10 µM (inactive)	> 10 µM (inactive)	> 10 µM (inactive)	> 10 µM (inactive)	> 10 µM (inactive)	> 10 µM (inactive)	> 10 µM (inactive)	> 10 µM (inactive)	> 10 µM (inactive)
CC(C)c1cccc(C(C)C)c1NC(=O)/C(CC(=O)CC(c1ccccc1)c1c(O)c2ccccc2oc1=O)=N/O (centres undefined)	> 100 µM (inactive)	95.9 µM (inactive)	> 100 µM (inactive)	> 100 µM (inactive)	> 100 µM (inactive)	> 100 µM (inactive)	> 100 µM (inactive)	> 100 µM (inactive)	> 100 µM (inactive)	> 100 µM (inactive)	> 100 µM (inactive)	> 95.9 µM (inactive)	> 100 µM (inactive)	> 100 µM (inactive)	> 100 µM (inactive)	> 100 µM (inactive)	> 100 µM (inactive)	> 100 µM (inactive)	> 100 µM (inactive)	> 100 µM (inactive)
Cc1c2cccc-2c2cc(O)c3ccccc3c2n1-c1ccc(N(C)C)cc1	9.77 µM (inactive)	15.6 µM (inactive)	13.2 µM (inactive)	13 µM (inactive)	16 µM (inactive)	28.1 µM (inactive)	19.9 µM (inactive)	17 µM (inactive)	0.304 µM (active)	6.22 µM (inactive)	0.395 µM (active)	11.5 µM (inactive)	15 µM (inactive)	2.59 µM (inactive)	16.4 µM (inactive)	14.8 µM (inactive)	3.01 µM (inactive)	14.6 µM (inactive)	16.7 µM (inactive)	13.1 µM (inactive)
